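Dose response: 5 concentrations. Exposure: 48 h. Format: 96-well plates. Endpoint: linear interpolation; highest concentration if not reached. TGI is the concentration that stops growth completely.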
How the values were obtained:
Test in all cases: DTP human tumour cell line panel, 48 h
CCRF-CEM leukemia = system: CCRF-CEM leukemia
SK-MEL-28 melanoma = system: SK-MEL-28 melanoma
PC-3 prostate = system: PC-3 prostate
ACHN renal = system: ACHN renal
OVCAR-8 ovarian = system: OVCAR-8 ovarian
NCI-H23 lung = system: NCI-H23 lung
T-47D breast = system: T-47D breast
DU-145 prostate = system: DU-145 prostate
M14 melanoma = system: M14 melanoma
A549 NSCLC = system: A549 NSCLC
HS 578T breast = system: HS 578T breast
NCI/ADR-RES ovarian = system: NCI/ADR-RES ovarian
UACC-257 melanoma = system: UACC-257 melanoma
HCT-116 colon = system: HCT-116 colon
OVCAR-3 ovarian = system: OVCAR-3 ovarian
CAKI-1 renal = system: CAKI-1 renal
NCI-H522 lung = system: NCI-H522 lung
EKVX NSCLC = system: EKVX NSCLC
SR leukemia = system: SR leukemia
HOP-92 NSCLC = system: HOP-92 NSCLC

Compound: CC(=O)N1C(c2[nH]c3ccccc3c2-c2ccccc2)CCN1c1ccccc1 (configuration not stated)
- TGI (CCRF-CEM leukemia): > 10 µM
- TGI (SK-MEL-28 melanoma): > 10 µM
- TGI (PC-3 prostate): > 10 µM
- TGI (ACHN renal): > 10 µM
- TGI (OVCAR-8 ovarian): > 10 µM
- TGI (NCI-H23 lung): > 10 µM
- TGI (T-47D breast): > 10 µM
- TGI (DU-145 prostate): > 10 µM
- TGI (M14 melanoma): > 10 µM
- TGI (A549 NSCLC): > 10 µM
- TGI (HS 578T breast): > 10 µM
- TGI (NCI/ADR-RES ovarian): > 10 µM
- TGI (UACC-257 melanoma): > 10 µM
- TGI (HCT-116 colon): > 10 µM
- TGI (OVCAR-3 ovarian): > 10 µM
- TGI (CAKI-1 renal): > 10 µM
- TGI (NCI-H522 lung): > 10 µM
- TGI (EKVX NSCLC): > 10 µM
- TGI (SR leukemia): > 10 µM

Compound: O=[N+]([O-])c1ccc(-c2nnc(C34CC5CC(CC(C5)C3)C4)o2)cc1
- TGI (HOP-92 NSCLC): > 100 µM
- TGI (CCRF-CEM leukemia): > 100 µM
- TGI (SK-MEL-28 melanoma): > 100 µM
- TGI (PC-3 prostate): > 100 µM
- TGI (ACHN renal): > 100 µM
- TGI (NCI-H23 lung): > 100 µM
- TGI (T-47D breast): > 100 µM
- TGI (DU-145 prostate): > 100 µM
- TGI (M14 melanoma): > 100 µM
- TGI (A549 NSCLC): > 100 µM
- TGI (HS 578T breast): > 100 µM
- TGI (NCI/ADR-RES ovarian): > 100 µM
- TGI (HCT-116 colon): > 100 µM
- TGI (OVCAR-3 ovarian): > 100 µM
- TGI (CAKI-1 renal): > 100 µM
- TGI (NCI-H522 lung): > 100 µM
- TGI (EKVX NSCLC): > 100 µM
- TGI (SR leukemia): > 100 µM

Compound: CCC1NC(=O)C1NC(=O)OC (configuration not stated)
- TGI (HOP-92 NSCLC): > 100 µM
- TGI (CCRF-CEM leukemia): > 100 µM
- TGI (SK-MEL-28 melanoma): > 100 µM
- TGI (PC-3 prostate): > 100 µM
- TGI (ACHN renal): > 100 µM
- TGI (OVCAR-8 ovarian): > 100 µM
- TGI (NCI-H23 lung): > 100 µM
- TGI (T-47D breast): > 100 µM
- TGI (DU-145 prostate): > 100 µM
- TGI (M14 melanoma): > 100 µM
- TGI (HS 578T breast): > 100 µM
- TGI (NCI/ADR-RES ovarian): > 100 µM
- TGI (UACC-257 melanoma): > 100 µM
- TGI (HCT-116 colon): > 100 µM
- TGI (OVCAR-3 ovarian): > 100 µM
- TGI (CAKI-1 renal): > 100 µM
- TGI (NCI-H522 lung): > 100 µM
- TGI (EKVX NSCLC): > 100 µM
- TGI (SR leukemia): > 100 µM

Compound: CC(=O)CCCCC(=O)Nc1ccc(CC(NC(=O)OC(C)(C)C)C(=O)NCC(=O)OCc2ccccc2)cc1 (configuration not stated)
- TGI (HOP-92 NSCLC): 68 µM
- TGI (SK-MEL-28 melanoma): 35.4 µM
- TGI (PC-3 prostate): 27.5 µM
- TGI (ACHN renal): > 100 µM
- TGI (OVCAR-8 ovarian): 39.7 µM
- TGI (NCI-H23 lung): 76.6 µM
- TGI (T-47D breast): 42.6 µM
- TGI (DU-145 prostate): 88.5 µM
- TGI (M14 melanoma): 55.2 µM
- TGI (A549 NSCLC): > 100 µM
- TGI (HS 578T breast): 48.4 µM
- TGI (NCI/ADR-RES ovarian): > 100 µM
- TGI (HCT-116 colon): 37.8 µM
- TGI (OVCAR-3 ovarian): 27.9 µM
- TGI (CAKI-1 renal): 29.1 µM
- TGI (NCI-H522 lung): 57.9 µM
- TGI (EKVX NSCLC): > 100 µM
- TGI (SR leukemia): 56.9 µM

Compound: CC[C@H]1C=CCC[C@@]2(C[C@@H]3CC[C@@H]4[C@H](C(=O)OCCCCCCCCCCCCCCCC(=O)O)[C@]5(CCC[C@@H](C)O5)NC(=[N+]34)N2)O1
- TGI (HOP-92 NSCLC): 0.615 µM
- TGI (CCRF-CEM leukemia): 0.0215 µM
- TGI (SK-MEL-28 melanoma): 5.3 µM
- TGI (PC-3 prostate): 1.9 µM
- TGI (ACHN renal): 1.89 µM
- TGI (OVCAR-8 ovarian): 8.03 µM
- TGI (NCI-H23 lung): 4.83 µM
- TGI (T-47D breast): 11.9 µM
- TGI (DU-145 prostate): 8 µM
- TGI (M14 melanoma): 0.212 µM
- TGI (A549 NSCLC): 5.87 µM
- TGI (HS 578T breast): 2.13 µM
- TGI (NCI/ADR-RES ovarian): 14.8 µM
- TGI (HCT-116 colon): 2.16 µM
- TGI (OVCAR-3 ovarian): 5.83 µM
- TGI (CAKI-1 renal): 3.47 µM
- TGI (NCI-H522 lung): 0.365 µM
- TGI (EKVX NSCLC): 10.5 µM
- TGI (SR leukemia): 0.357 µM

Compound: CC#CC#C/C=C1/O[C@]2(CCC(OC(C)=O)CO2)[C@@H]2O[C@H]12 (some centres not stated)
- TGI (HOP-92 NSCLC): 92.9 µM
- TGI (CCRF-CEM leukemia): 55.3 µM
- TGI (PC-3 prostate): 80.9 µM
- TGI (ACHN renal): 60.8 µM
- TGI (OVCAR-8 ovarian): > 100 µM
- TGI (NCI-H23 lung): 44.7 µM
- TGI (T-47D breast): 52.1 µM
- TGI (DU-145 prostate): > 100 µM
- TGI (M14 melanoma): 67.6 µM
- TGI (A549 NSCLC): > 100 µM
- TGI (HS 578T breast): > 100 µM
- TGI (NCI/ADR-RES ovarian): 58.1 µM
- TGI (UACC-257 melanoma): 74.9 µM
- TGI (HCT-116 colon): 40.6 µM
- TGI (OVCAR-3 ovarian): > 100 µM
- TGI (CAKI-1 renal): 63.6 µM
- TGI (NCI-H522 lung): 35.6 µM
- TGI (EKVX NSCLC): 77.5 µM
- TGI (SR leukemia): > 100 µM
